Experimental data from PMC7139904, “Structural Requirements of Benzofuran Derivatives Dehydro-δ- and Dehydro-ε-Viniferin for Antimicrobial Activity Against the Foodborne Pathogen Listeria monocytogenes” (International Journal of Molecular Sciences, 2020).
Converted amounts (≈) assume the structure as drawn. “Also recorded” adds a separate entry of the source. Where two headings read alike, the source gives them in different places. Marks after values point to notes of the source that are not given here.

How the values were obtained:
WS1 fibroblast cells = experiment: Cytotoxicity, growth inhibition assay (MTS) on normal skin fibroblasts; type: cell-based, human; conditions: for IC50: WS1 cells, 48 h exposure, MTS assay, mean ± SD of three independent experiments; for Selectivity: concentration with cytotoxic effects on WS1 relative to MIC against L. monocytogenes: WS1 IC50 (µM) compared with MIC (µM) on L. monocytogenes Scott A
Method: (§1) The normal human skin WS1 fibroblast cells (ATCC CRL-1502) were cultured in Eagle’s Minimum Essential Medium plus 10% fetal bovine serum at 37 °C and 5% CO2. Cytotoxic potency was assessed by a growth inhibition assay (CellTiter 96® AQueous One Solution Cell Proliferation Assay MTS, Promega). The cells were seeded in a 96-well plate, and 24 h later were exposed to the compounds (concentration range 1−200 μM). After 48 h of exposure, 20 μL of 3-(4,5-dimethylthiazol-2-yl)-5-(3-carboxymethoxyphenyl)-2-(4-sulfophenyl)-2H-tetrazolium salt was added to each well. The absorbance was measured using a FLUOstar OPTIMA plate reader (BMG Labtech GmbH, Offenburg, Germany) at 492 nm after 4 h of incubation at 37 °C in 5% CO2. The IC50 was defined as the drug concentration causing 50% cell growth inhibition, determined by the dose−response curves. Experiments were performed in triplicate.

L. monocytogenes Scott A = experiment: Minimal inhibitory concentration (MIC) and minimal bactericidal concentration (MBC), 96-well plate broth assay; type: cell-based, Listeria monocytogenes; conditions: for MBC: value in brackets
Method: All synthesized derivatives were stored in dry form at -20 °C and dissolved in DMSO at a final concentration of 4.096 mg/mL prior to their use in the MIC and MBC determination. Briefly, L. monocytogenes was cultivated in Brain […] Infusion (BHI) broth (Sigma, Italy) at 37 °C for 24 h under a shaking condition (200 rpm). After the growth, the cells were diluted in BHI to 0.2 OD 600 nm and then used for the 96-well plate inoculum. The concentrations tested ranged from 1 up to 512 μg/mL. The assay was carried out in triplicate in a 96-well plate, according to Mattio et al., 2019 [4].

[1] = Cytotoxicity, growth inhibition assay (MTS) on normal skin fibroblasts; type: cell-based, human; conditions: human, WS1 normal skin fibroblast cells; WS1 IC50 (µM) compared with MIC (µM) on L. monocytogenes Scott A; read-out: Selectivity: concentration with cytotoxic effects on WS1 relative to MIC against L. monocytogenes
Method: as §1

[2] = system: L. monocytogenes LMG 16,779; set-up: method as in PMID 26867522; conditions: cited from earlier work
[3] = Listeria monocytogenes, 24 h, BHI broth, tested 1 up to 512 µg/mL, triplicate, read-out: MIC
[4] = Listeria monocytogenes, BHI broth, tested 1 up to 512 µg/mL, triplicate, read-out: MIC
[5] = Listeria monocytogenes, MIC as µM concentration, read-out: MIC
[6] = Listeria monocytogenes, tested 1 up to 512 µg/mL, triplicate, read-out: MBC
[7] = tested 1 up to 512 µg/mL, triplicate
[8] = BHI broth, tested 1 up to 512 µg/mL, triplicate
[9] = MIC as µM concentration, read-out: MIC

| Compound | IC50 (WS1 fibroblast cells; Homo sapiens, WS1, 48 h) [µM] | MIC (L. monocytogenes Scott A; [3]) [µg/mL] | MIC (L. monocytogenes Scott A; [4]) [µg/mL] | MIC (L. monocytogenes Scott A; [5]) [µM] | MBC (L. monocytogenes Scott A; [6]) [µg/mL] | Selectivity: concentration with cytotoxic effects on WS1 relative to MIC against L. monocytogenes (WS1 fibroblast cells) | Antimicrobial activity, result in words (L. monocytogenes Scott A) | selectivity ratio at 48 h [1] | MIC ([2]; MIC as µM concentration) [µM] | MIC [2] | MBC (L. monocytogenes Scott A; [7]) | MIC (L. monocytogenes Scott A; [8]) [µg/mL] | MIC (L. monocytogenes Scott A; [9]) [µM] | IC50 (WS1 fibroblast cells) [µM] |
| --- | --- | --- | --- | --- | --- | --- | --- | --- | --- | --- | --- | --- | --- | --- |
| COc1cc(/C=C/c2ccc(O)cc2)cc(OC)c1 [pterostilbene, reference compound] | 57 ± 10 | 64 | 64 | 250 | 128 (≈ 499 µM) |  |  |  |  |  |  |  |  |  |
| Oc1ccc(/C=C/c2cc(O)cc3oc(-c4ccc(O)cc4)c(-c4cc(O)cc(O)c4)c23)cc1 [Compound 2, viniferifuran] | 33 ± 1.4 | 16 | 16 | 35.4 | > 512 |  |  |  |  |  |  |  |  |  |
| Oc1ccc(-c2oc3ccccc3c2-c2cc(O)cc(O)c2)cc1 [Compound 3] | 98.7 ± 1.8 | 16 | 16 | 50.3 | 64 (≈ 201 µM) | two-fold higher; also recorded: at least two-times higher |  |  |  |  |  |  |  |  |
| Oc1cc(O)cc(/C=C/c2ccc3occ(-c4cc(O)cc(O)c4)c3c2)c1 [Compound 5] | 96.8 ± 4.5 |  | 16 | 44.4 | 64 (≈ 178 µM) | two-fold higher; also recorded: at least two-times higher |  |  |  |  |  |  |  |  |
| COc1ccc(-c2cc3cc(/C=C/c4cc(OC)cc(OC)c4)ccc3o2)cc1 [Compound 10] | > 100 |  | > 256 | 662 | > 256 |  | inactive |  |  |  |  |  |  |  |
| COc1ccc(-c2oc3cc(OC)ccc3c2-c2cc(OC)cc(OC)c2)cc1 [Compound 11] | > 100 |  | > 256 | 656 | > 256 |  | inactive |  |  |  |  |  |  |  |
| Oc1ccc(-c2cc3cc(/C=C/c4cc(O)cc(O)c4)ccc3o2)cc1 [Compound 4] | 97.8 ± 3 | 256 | 256 | 743 | > 512 |  | completely inactive |  |  |  |  |  |  |  |
| Oc1ccc(-c2oc3ccc(/C=C/c4cc(O)cc(O)c4)cc3c2-c2cc(O)cc(O)c2)cc1 [Compound 1, dehydro-δ-viniferin] | 37 ± 1.4 | 2 | 2 | 4.42 | 16 (≈ 35.4 µM) |  |  | ~10 |  |  |  |  |  |  |
| Oc1ccc(/C=C/c2cc(O)cc(O)c2)cc1 [resveratrol] | > 200 |  |  |  |  |  |  |  | 876 (≈ 200 µg/mL) | 200 (-) ^c µg/mL |  |  |  |  |
| Oc1ccc(-c2oc3cc(O)ccc3c2-c2cc(O)cc(O)c2)cc1 [Compound 6] | 98.5 ± 2 | 64 | 64 | 191 | > 512 |  |  |  |  |  |  |  |  |  |
| COc1cc(/C=C/c2ccc3oc(-c4ccc(O)cc4)cc3c2)cc(OC)c1 [Compound 9] | 95 ± 2.3 | > 512 | > 512 | 1370 | > 512 |  | inactive |  |  |  | >512 (>512) µg/mL |  |  |  |
| Oc1ccc(/C=C/c2cc(O)cc3occ(-c4cc(O)cc(O)c4)c23)cc1 [Compound 7] | 45 ± 1.2 |  |  |  |  | two-fold higher; also recorded: at least two-times higher |  |  |  |  | 64 µg/mL (≈ 178 µM) | 8 | 23.2 |  |
| Oc1ccc(/C=C/c2cc(O)cc3occ(-c4cc(O)cc(O)c4)c23)cc1 [Compound 8] |  |  |  |  |  |  |  |  |  |  | > 512 µg/mL | 64 | 178 | 85 ± 4.6 |
| [H]/N=C(\N/C(=N/[H])NCCCCCCNC(=N)NC(=N)Nc1ccc(Cl)cc1)Nc1ccc(Cl)cc1 [Chlorhexidine, reference compound] |  |  | 8 | 15.8 | 32 (≈ 63.3 µM) |  |  |  |  |  |  |  |  |  |
